Values joined by “and” are separate entries in the source; they are usually repeats but may differ in a detail not shown here. Identical values can stand only once.
Columns and labels:
[1] = Stability of ciprofol QC samples in rat plasma; assay type: physicochemical; conditions: rat plasma; for Stability: calculated concentration: single replicates
Procedure: 5 μL of IS solution (2.5 μg·mL^-1 D6-ciprofol) was added to 100 μL of plasma and mixed. Then, 300 μL of acetonitrile was added. The mixture was vortexed for 2 min and centrifuged for 10 min, and the supernatant was transferred to an autosampler vial for HPLC-MS/MS detection.
(§1) To investigate the stability of ciprofol under a variety of conditions, three groups of liver microsome QC sample solutions were prepared, and one group was immediately processed and analysed as described in Section 2.4.2. Another group was stored at room temperature for 8 hours before treatment and assessment. The other group was treated and placed in the autosampler (4°C) for 24 h and subsequently analysed. In addition, simulated plasma QC samples were prepared in five groups: one group was processed and measured immediately as described in Section 2.4.3, and another group was placed in the autosampler for 24 h after treatment. The other three groups were placed at room temperature for 8 h, stored at -40°C for 30 d, frozen and thawed three times, respectively, and then processed and detected as described in Section 2.4.3. All the above samples were tested in parallel in five batches.

[2] = system: typical substrates of CYP1A2, CYP2B6, and CYP2C19; conditions: IVIVE and PBPK simulations; ref Hou et al. 9; cited from earlier work
[3] = Stability of ciprofol QC samples in liver microsome incubation system; assay type: physicochemical; conditions: liver microsomes; for ciprofol found after storage, Autosampler / ciprofol found after storage, Room Temperature: n = 5; for Stability: calculated concentration: single replicates
Procedure: The incubation system was removed from the water bath, and the reaction was terminated immediately by adding 800 μL of reaction termination solution (acetonitrile solution containing 5 μg·mL^-1 D6-ciprofol at 4°C). The mixture was vortexed for 2 min and centrifuged for 15 min, after which the supernatant was transferred to an autosampler vial for HPLC-MS/MS detection.
as §1

[4] = Autosampler for 24 h, QC level H
[5] = Autosampler for 24 h, QC level L
[6] = Autosampler for 24 h, QC level M
[7] = Feeeze - Thaw for three times, QC level H
[8] = Feeeze - Thaw for three times, QC level L
[9] = Feeeze - Thaw for three times, QC level M
[10] = Room - Temperature for 8 h, QC level H
[11] = Room - Temperature for 8 h, QC level L
[12] = Room - Temperature for 8 h, QC level M

CC(C)c1cccc([C@H](C)C2CC2)c1O [ciprofol]
Stability: mean calculated concentration ([1]; -40℃ for 30 d, QC level M): 242.73 ng/mL
Stability: calculated concentration ([1]; -40℃ for 30 d, QC level M): 234.27 ng/mL and 256.93 ng/mL and 236.05 ng/mL and 240.78 ng/mL
Stability: mean calculated concentration [1, 4]: 1576.27 ng/mL
Stability: calculated concentration [1, 4]: 1522.23 ng/mL and 1628.44 ng/mL and 1549.96 ng/mL and 1580.01 ng/mL and 1600.71 ng/mL
Stability: mean calculated concentration [1, 5]: 31.48 ng/mL
Stability: calculated concentration [1, 5]: 32.65 ng/mL and 31.94 ng/mL and 29.92 ng/mL and 33.65 ng/mL and 29.23 ng/mL
Stability: mean calculated concentration [1, 6]: 250.78 ng/mL
Stability: calculated concentration [1, 6]: 249.99 ng/mL and 245.49 ng/mL and 259.61 ng/mL and 233.66 ng/mL and 265.15 ng/mL
Stability: mean calculated concentration [1, 7]: 1604.92 ng/mL
Stability: calculated concentration [1, 7]: 1500.04 ng/mL and 1659.28 ng/mL and 1498.65 ng/mL and 1682.66 ng/mL and 1683.96 ng/mL
Stability: mean calculated concentration [1, 8]: 32.14 ng/mL
Stability: calculated concentration [1, 8]: 33.17 ng/mL and 29.49 ng/mL and 30.69 ng/mL and 33.26 ng/mL and 34.09 ng/mL
Stability: mean calculated concentration [1, 9]: 245.21 ng/mL
Stability: calculated concentration [1, 9]: 248.65 ng/mL and 241.72 ng/mL and 249.13 ng/mL and 243.02 ng/mL and 243.50 ng/mL
Stability: mean calculated concentration [1, 10]: 1464.24 ng/mL
Stability: calculated concentration [1, 10]: 1500.17 ng/mL and 1462.05 ng/mL and 1317.85 ng/mL and 1591.16 ng/mL and 1449.95 ng/mL
Stability: mean calculated concentration [1, 11]: 29.27 ng/mL
Stability: calculated concentration [1, 11]: 29.52 ng/mL and 32.22 ng/mL and 27.05 ng/mL and 30.35 ng/mL and 27.24 ng/mL
Stability: mean calculated concentration [1, 12]: 227.31 ng/mL
Stability: calculated concentration [1, 12]: 220.38 ng/mL and 226.72 ng/mL and 228.84 ng/mL and 235.64 ng/mL and 224.99 ng/mL
predicted drug-drug interactions with typical substrates of CYP1A2, CYP2B6, and CYP2C19 [2]: did not cause drug‒drug interactions
ciprofol found after storage, Autosampler ([3]; QC 2.5 μg·mL^-1, autosampler (4°C) for 24 h after treatment): 2.54 ± 0.11 µg/mL
ciprofol found after storage, Room Temperature ([3]; QC 2.5 μg·mL^-1, room temperature for 8 h): 2.53 ± 0.19 µg/mL
ciprofol found after storage, Autosampler ([3]; QC 10 μg·mL^-1, autosampler (4°C) for 24 h after treatment): 9.82 ± 0.44 µg/mL
ciprofol found after storage, Room Temperature ([3]; QC 10 μg·mL^-1, room temperature for 8 h): 10.14 ± 0.62 µg/mL
ciprofol found after storage, Autosampler ([3]; QC 75 μg·mL^-1, autosampler (4°C) for 24 h after treatment): 72.07 ± 4.83 µg/mL
ciprofol found after storage, Room Temperature ([3]; QC 75 μg·mL^-1, room temperature for 8 h): 70.43 ± 3.12 µg/mL
Stability: mean calculated concentration [3, 4]: 72.07 µg/mL
Stability: calculated concentration [3, 4]: 64.85 µg/mL and 72.55 µg/mL and 71.79 µg/mL and 72.70 µg/mL and 78.45 µg/mL
Stability: mean calculated concentration [3, 5]: 2.54 µg/mL
Stability: calculated concentration [3, 5]: 2.73 µg/mL and 2.56 µg/mL and 2.49 µg/mL and 2.50 µg/mL and 2.43 µg/mL
Stability: mean calculated concentration [3, 6]: 9.82 µg/mL
Stability: calculated concentration [3, 6]: 9.08 µg/mL and 9.88 µg/mL and 10.27 µg/mL and 9.89 µg/mL and 9.96 µg/mL
Stability: mean calculated concentration [3, 10]: 70.43 µg/mL
Stability: calculated concentration [3, 10]: 71.38 µg/mL and 72.99 µg/mL and 69.04 µg/mL and 65.67 µg/mL and 73.05 µg/mL
Stability: mean calculated concentration [3, 11]: 2.53 µg/mL
Stability: calculated concentration [3, 11]: 2.63 µg/mL and 2.49 µg/mL and 2.51 µg/mL and 2.26 µg/mL and 2.77 µg/mL
Stability: mean calculated concentration [3, 12]: 10.15 µg/mL
Stability: calculated concentration [3, 12]: 9.80 µg/mL and 9.76 µg/mL and 10.83 µg/mL and 10.81 µg/mL and 9.53 µg/mL
